Measurements from PubChem BioAssay (NCI).
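Tested at 5 concentrations; 48 h exposure; 96-well plates; endpoints linearly interpolated, else capped at highest concentration. GI50 = concentration required for 50% inhibition of growth. TGI is the concentration that stops growth completely.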

How the values were obtained:
Assay in all cases: NCI tumour cell line growth inhibition, 48 h
[1] = test system: KM12 colon
[2] = test system: SN12C renal
[3] = test system: U251 CNS
[4] = test system: OVCAR-5 ovarian
[5] = test system: PC-3 prostate
[6] = test system: TK-10 renal
[7] = test system: NCI/ADR-RES ovarian
[8] = test system: CCRF-CEM leukemia
[9] = test system: SK-MEL-5 melanoma
[10] = test system: BT-549 breast
[11] = test system: MCF7 breast
[12] = test system: SF-268 CNS
[13] = test system: SF-539 CNS
[14] = test system: SK-OV-3 ovarian
[15] = test system: RPMI-8226 leukemia
[16] = test system: SNB-75 CNS
[17] = test system: MDA-MB-231 breast
[18] = test system: HOP-92 NSCLC
[19] = test system: SF-295 CNS
[20] = test system: A498 renal
[21] = test system: HL-60(TB) leukemia
[22] = test system: CAKI-1 renal
[23] = test system: SNB-19 CNS
[24] = test system: MDA-MB-435
[25] = test system: UACC-257 melanoma
[26] = test system: ACHN renal
[27] = test system: LOX IMVI melanoma
[28] = test system: NCI-H23 lung
[29] = test system: COLO 205 colon
[30] = test system: HT29 colon
[31] = test system: K-562 leukemia
[32] = test system: 786-0 renal
[33] = test system: HCT-116 colon
[34] = test system: HCT-15 colon
[35] = test system: HOP-62 NSCLC
[36] = test system: SR leukemia
[37] = test system: RXF 393 renal
[38] = test system: UO-31 renal
[39] = test system: DU-145 prostate
[40] = test system: NCI-H460 lung
[41] = test system: A549 NSCLC
[42] = test system: NCI-H226 lung
[43] = test system: SK-MEL-28 melanoma
[44] = test system: M14 melanoma
[45] = test system: HCC-2998 colon
[46] = test system: NCI-H522 lung
[47] = test system: UACC-62 melanoma
[48] = test system: IGROV1 ovarian
[49] = test system: T-47D breast
[50] = test system: MALME-3M melanoma
[51] = test system: MOLT-4 leukemia
[52] = test system: OVCAR-3 ovarian
[53] = test system: OVCAR-8 ovarian
[54] = test system: SK-MEL-2 melanoma
[55] = test system: SW-620 colon
[56] = test system: EKVX NSCLC
[57] = test system: HS 578T breast
[58] = test system: OVCAR-4 ovarian

## CC(=O)N1CCC(Nc2cc(C(=O)NC[C@H](O)CN3CCc4ccccc4C3)ncn2)CC1
[1]
  GI50: > 100 µM
  TGI: > 100 µM
[2]
  GI50: > 100 µM
  TGI: > 100 µM
[3]
  GI50: > 100 µM
  TGI: > 100 µM
[4]
  GI50: > 100 µM
  TGI: > 100 µM
[5]
  GI50: > 100 µM
  TGI: > 100 µM
[6]
  GI50: > 100 µM
  TGI: > 100 µM
[7]
  GI50: > 100 µM
  TGI: > 100 µM
[8]
  GI50: > 100 µM
  TGI: > 100 µM
[9]
  GI50: > 100 µM
  TGI: > 100 µM
[10]
  GI50: > 100 µM
  TGI: > 100 µM
[11]
  GI50: > 100 µM
  TGI: > 100 µM
[12]
  GI50: > 100 µM
  TGI: > 100 µM
[13]
  GI50: > 100 µM
  TGI: > 100 µM
[14]
  GI50: > 100 µM
  TGI: > 100 µM
[15]
  GI50: > 100 µM
  TGI: > 100 µM
[16]
  GI50: > 100 µM
  TGI: > 100 µM
[17]
  GI50: > 100 µM
  TGI: > 100 µM
[18]
  GI50: 91.9 µM
  TGI: > 100 µM
[19]
  GI50: > 100 µM
  TGI: > 100 µM
[20]
  GI50: > 100 µM
  TGI: > 100 µM
[21]
  GI50: > 100 µM
  TGI: > 100 µM
[22]
  GI50: > 100 µM
  TGI: > 100 µM
[23]
  GI50: > 100 µM
  TGI: > 100 µM
[24]
  GI50: > 100 µM
  TGI: > 100 µM
[25]
  GI50: > 100 µM
  TGI: > 100 µM
[26]
  GI50: > 100 µM
  TGI: > 100 µM
[27]
  GI50: > 100 µM
  TGI: > 100 µM
[28]
  GI50: > 100 µM
  TGI: > 100 µM
[29]
  GI50: > 100 µM
  TGI: > 100 µM
[30]
  GI50: > 100 µM
  TGI: > 100 µM
[31]
  GI50: > 100 µM
  TGI: > 100 µM
[32]
  GI50: > 100 µM
  TGI: > 100 µM
[33]
  GI50: > 100 µM
  TGI: > 100 µM
[34]
  GI50: > 100 µM
  TGI: > 100 µM
[35]
  GI50: > 100 µM
  TGI: > 100 µM
[36]
  GI50: > 100 µM
  TGI: > 100 µM
[37]
  GI50: > 100 µM
  TGI: > 100 µM
[38]
  GI50: > 100 µM
  TGI: > 100 µM
[39]
  GI50: > 100 µM
  TGI: > 100 µM
[40]
  GI50: > 100 µM
  TGI: > 100 µM
[41]
  GI50: > 100 µM
  TGI: > 100 µM
[42]
  GI50: > 100 µM
  TGI: > 100 µM
[43]
  GI50: > 100 µM
  TGI: > 100 µM
[44]
  GI50: > 100 µM
  TGI: > 100 µM
[45]
  GI50: > 100 µM
  TGI: > 100 µM
[46]
  GI50: > 100 µM
  TGI: > 100 µM
[47]
  GI50: > 100 µM
  TGI: > 100 µM
[48]
  GI50: > 100 µM
  TGI: > 100 µM
[49]
  GI50: > 100 µM
  TGI: > 100 µM
[50]
  GI50: > 100 µM
  TGI: > 100 µM
[51]
  GI50: > 100 µM
  TGI: > 100 µM
[52]
  GI50: > 100 µM
  TGI: > 100 µM
[53]
  GI50: > 100 µM
  TGI: > 100 µM
[54]
  GI50: > 100 µM
  TGI: > 100 µM
[55]
  GI50: > 100 µM
  TGI: > 100 µM
[56]
  GI50: > 100 µM
  TGI: > 100 µM
[57]
  GI50: > 100 µM
  TGI: > 100 µM
[58]
  GI50: > 100 µM
  TGI: > 100 µM

## O=Cc1cn(Cc2ccc(Cl)cc2)c2ccccc12
[1]
  GI50: 26.4 µM
  TGI: > 100 µM
[2]
  GI50: 14.9 µM
  TGI: > 100 µM
[3]
  GI50: 13.3 µM
  TGI: > 100 µM
[4]
  GI50: 0.082 µM
  TGI: 0.659 µM
[5]
  GI50: 12.8 µM
  TGI: 73.2 µM
[6]
  GI50: 0.162 µM
  TGI: 1.52 µM
[7]
  GI50: 13.9 µM
  TGI: > 100 µM
[8]
  GI50: 19.7 µM
  TGI: > 100 µM
[9]
  GI50: 8.18 µM
  TGI: 22.3 µM
[10]
  GI50: 11.4 µM
  TGI: 49.2 µM
[11]
  GI50: 4.12 µM
  TGI: > 67.2 µM
[12]
  GI50: 21.4 µM
  TGI: > 100 µM
[13]
  GI50: 16.6 µM
  TGI: 50.3 µM
[14]
  GI50: 1.84 µM
  TGI: 44.8 µM
[15]
  GI50: 7.14 µM
  TGI: > 100 µM
[16]
  GI50: 8.26 µM
  TGI: > 100 µM
[17]
  GI50: 9.7 µM
  TGI: > 56.3 µM
[18]
  GI50: 4.43 µM
  TGI: 49 µM
[19]
  GI50: 0.992 µM
  TGI: 34.9 µM
[20]
  GI50: 0.0342 µM
  TGI: 0.172 µM
[21]
  GI50: 22.5 µM
  TGI: 72.8 µM
[22]
  GI50: 0.101 µM
  TGI: 3.42 µM
[23]
  GI50: 19.4 µM
  TGI: > 100 µM
[24]
  GI50: 23 µM
  TGI: > 100 µM
[25]
  GI50: 2.05 µM
  TGI: 7.44 µM
[26]
  GI50: 27.4 µM
  TGI: > 100 µM
[27]
  GI50: 12.1 µM
  TGI: > 95 µM
[28]
  GI50: 8.37 µM
  TGI: > 100 µM
[29]
  GI50: 2.17 µM
  TGI: 20.7 µM
[30]
  GI50: 24.4 µM
  TGI: > 100 µM
[31]
  GI50: 4.21 µM
  TGI: > 100 µM
[32]
  GI50: 13.6 µM
  TGI: 64.5 µM
[33]
  GI50: 4.83 µM
  TGI: 30 µM
[34]
  GI50: 15.5 µM
  TGI: > 100 µM
[35]
  GI50: 2.63 µM
  TGI: > 100 µM
[36]
  GI50: 16.5 µM
  TGI: > 79.4 µM
[37]
  GI50: 4.59 µM
  TGI: 51.8 µM
[38]
  GI50: 3.35 µM
  TGI: 45.4 µM
[39]
  GI50: 22.3 µM
  TGI: > 100 µM
[40]
  GI50: 0.115 µM
  TGI: 11.2 µM
[41]
  GI50: 13.4 µM
  TGI: > 100 µM
[42]
  GI50: 0.041 µM
  TGI: 0.251 µM
[43]
  GI50: 33.6 µM
  TGI: > 100 µM
[44]
  GI50: 15.2 µM
  TGI: 72.5 µM
[45]
  GI50: 14.3 µM
  TGI: > 100 µM
[46]
  GI50: 73.2 µM
  TGI: > 100 µM
[47]
  GI50: 1.32 µM
  TGI: 9.09 µM
[48]
  GI50: 1.22 µM
  TGI: 39.4 µM
[49]
  GI50: 1.84 µM
  TGI: 69.7 µM
[50]
  GI50: 14.3 µM
  TGI: 43.3 µM
[51]
  GI50: 17.9 µM
  TGI: > 82.7 µM
[52]
  GI50: 6.64 µM
  TGI: 61.7 µM
[53]
  GI50: 23.5 µM
  TGI: > 100 µM
[54]
  GI50: 8.49 µM
  TGI: 66.1 µM
[55]
  GI50: 13.2 µM
  TGI: > 100 µM
[56]
  GI50: 21 µM
  TGI: > 100 µM
[57]
  GI50: 19.2 µM
  TGI: > 100 µM
[58]
  GI50: 4.39 µM
  TGI: > 100 µM
